Patent US20110263651A1, “NOVEL PIPERIDINE-BUTYRAMIDE DERIVATIVES AND THEIR USE AS MONOAMINE NEUROT[…]-UPTAKE INHIBITORS” (N[…]/S, priority 2008, published 2011)
pIC50: −log10 of the molar value. Where a name gives a salt, the structure may show the parent alone.

Experiments:
Type in all cases: biochemical
[1] = test system: serotonine (5-HT) reuptake in synaptosomes; assay: Inhibition of 5-HT reuptake in synaptosomes; conditions: 3H-5-HT, read-out: 5-HT-uptake IC50
Method: (§1) Compounds were tested for their ability to inhibit the reuptake of the monoamine neurotransmitters dopamine (DA) noradrenaline (NA) and serotonine (5-HT) in synaptosomes as described in WO 97/16451 (NeuroSearch NS).
(§2) The test values are given as IC50 (the concentration (μM) of the test substance which inhibits the specific binding of ^3H-DA, ^3H-NA, or ^3H-5-HT by 50%).

[2] = test system: dopamine (DA) reuptake in synaptosomes; assay: Inhibition of DA reuptake in synaptosomes; conditions: 3H-DA, read-out: DA-uptake IC50
Method: as §1, §2

[3] = test system: noradrenaline (NA) reuptake in synaptosomes; assay: Inhibition of NA reuptake in synaptosomes; conditions: 3H-NA, read-out: NA-uptake IC50
Method: as §1, §2

CCN(C(=O)CCCC1CCNCC1)c1ccc(Cl)c(Cl)c1 [Compound 3.1, N-(3,4-Dichloro-phenyl)-N-ethyl-4-piperidin-4-yl-butyramide fumaric acid salt]
pIC50 [1]: 6.24 | pIC50 [2]: 7.92 | pIC50 [3]: 7.52

CCN(C(=O)CCCC1CCN(C)CC1)c1ccc(Cl)c(Cl)c1 [Compound 4.1, N-(3,4-Dichloro-phenyl)-N-ethyl-4-(1-methyl-piperidin-4-yl)-butyramide fumaric acid salt]
pIC50 [1]: 6.10 | pIC50 [2]: 8.16 | pIC50 [3]: 7.92
